Results as given in patent publication US12497403B2, “Factor XIa inhibitors” (Merck Sharp & Dohme LLC, priority 2021, dated 2025).

Assays:
Human plasma kallikrein = biological target: T1, Human plasma kallikrein (Homo sapiens, UniProt P03952); test: Kallikrein assay (plasma kallikrein); type: biochemical; conditions: purified Human plasma kallikrein 0.5 nM, Acetyl-K-P-R-AFC substrate, pH 7.4; read-out: pKal IC50
T1 construct: yields a heavy chain (371 amino acids) and a light chain (248 amino acids); purchased Enzyme Research Laboratories
T1 sequence (P03952 391-638 limits assumed): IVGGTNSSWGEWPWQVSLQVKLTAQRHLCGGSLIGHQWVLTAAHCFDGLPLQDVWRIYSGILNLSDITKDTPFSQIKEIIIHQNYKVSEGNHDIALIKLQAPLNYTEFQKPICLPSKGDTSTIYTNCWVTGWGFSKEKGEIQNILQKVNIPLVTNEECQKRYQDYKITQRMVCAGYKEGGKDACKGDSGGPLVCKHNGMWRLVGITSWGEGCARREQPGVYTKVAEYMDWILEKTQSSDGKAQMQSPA
T1 sequence (P03952 20-390 partner limits assumed): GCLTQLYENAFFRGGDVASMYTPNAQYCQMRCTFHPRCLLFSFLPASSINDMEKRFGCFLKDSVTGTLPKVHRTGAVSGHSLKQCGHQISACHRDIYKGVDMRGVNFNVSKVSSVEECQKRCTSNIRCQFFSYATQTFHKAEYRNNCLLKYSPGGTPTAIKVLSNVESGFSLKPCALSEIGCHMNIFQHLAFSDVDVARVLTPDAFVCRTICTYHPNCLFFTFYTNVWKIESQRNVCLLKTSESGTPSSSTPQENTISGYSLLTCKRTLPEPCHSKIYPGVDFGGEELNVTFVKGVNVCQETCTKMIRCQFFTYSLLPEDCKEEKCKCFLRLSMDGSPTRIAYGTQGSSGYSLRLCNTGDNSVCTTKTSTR
Protocol: The effectiveness of a compound of the present invention as an inhibitor of Kallikrein can be determined using a relevant purified serine protease, and an appropriate synthetic substrate. The rate of hydrolysis of the chromogenic or fluorogenic substrate by the relevant serine protease was measured both in the absence and presence of compounds of the present invention. Assays were conducted at room temperature or at 37° C. […] A decrease in the rate of fluorescence change in the presence of inhibitor is indicative of enzyme inhibition. Such methods are known to one skilled in the art. The results of this assay are expressed as the half-maximal inhibitory concentrations (IC50), or the inhibitory constant. Ki.
Kallikrein determinations were made in 50 mM HEPES buffer at pH 7.4 containing 150 mM NaCl, 5 mM CaCl2, and 0.1% PEG 8000 (polyethylene glycol; Fisher Scientific). Determinations were made using purified Human plasma kallikrein at a final concentration of 0.5 nM (Enzyme Research Laboratories) and the synthetic substrate. Acetyl-K-P-R-AFC (Sigma # C6608) at a concentration of […].
Activity assays were performed by diluting a stock solution of substrate at least tenfold to a final concentration≤ 0.2 Km into a solution containing enzyme or enzyme equilibrated with inhibitor. Times required to achieve equilibration between enzyme and inhibitor were determined in control experiments. The reactions were performed under linear progress curve conditions and fluorescence increase measured at 405 Ex/510 Em nm. Values were converted to percent inhibition of the control reaction (after subtracting 100% Inhibition value). IC50 was determined by inflection point from a four parameter logistic curve fit. Ki was calculated using the Cheng Prusoff equation. Ki=IC50/(1+([S]/Km)).

[1] = Dog pharmacokinetics (screening IV/PO or cassette IV); type: in vivo; conditions: male; dog plasma, mean residence time
Protocol: Plasma pharmacokinetic parameters for clearance, volume of distribution, half-life, mean residence time (MRT) and oral bioavailability were determined in dogs from oral administration and IV administration studies. 4 male dogs, typically weighing 8-12 kilograms, were fasted overnight prior to dosing. Compounds were prepared for oral and IV dosing by addition to a vehicle, depending on the dose used. For a typical preparation, 1 mg per mL (IV) or 1.5 mg per mL (oral) of test compound was added to vehicle comprised of 20% dimethyl sulfoxide (DMSO), 60% polyethylene glycol 400 (PEG400) and 20% water. IV formulation was administered to 2 dogs via the saphenous or cephalic vein, and oral dosing was administered to 2 dogs via oral gavage. Blood was collected by the cephalic or jugular vein, typically at predose, 2 min, 8 min, 15 min, 30 min, and 1, 2, 4, 6, 8 and 24 hr postdose for IV, and at predose, 15 min, 30 min, and 1, 2, 4, 6, 8, and 24 hr for oral dosing. Samples were collected in K2EDTA tubes, stored on ice. and centrifuged. Plasma was transferred to a micro titer plate and stored at −70° C.until analysis. Plasma samples were extracted using protein precipitation and analyzed by liquid chromatography separation followed by mass spec detection (LCMS/MS), using a standard curve for each compound. Plasma pharmacokinetic parameters were calculated for IV and oral dosing data by non-compartmental methods. Oral bioavailability was determined as the ratio of the dose-normalized plasma area under the curve (AUC) following oral dosing vs. IV dosing.
Plasma pharmacokinetic parameters for clearance, volume of distribution, half-life, and mean residence time (MRT) were determined in dogs from IV cassette administration studies. 2 male dogs, typically weighing 8-12 kilograms, were fasted overnight prior to dosing. Compounds were prepared for IV dosing by addition to a vehicle, depending on the dose used. For a typical preparation, 1 mg per mL (IV) of up to 5 test compounds were added to vehicle comprised of 20% dimethyl sulfoxide (DMSO), 60% polyethylene glycol 400 (PEG400) and 20% water. IV formulation was administered to 2 dogs via the saphenous or cephalic vein. Blood was collected by the cephalic or jugular vein, typically at predose. 2, 8, 15, 30 min, 1, 2, 4, 6, 8 and 24 hr postdose. Samples were collected in K2EDTA tubes, stored on ice, and centrifuged. Plasma was transferred to a micro titer plate and stored at −70° C. until analysis. Plasma samples were extracted using protein precipitation and analyzed by liquid chromatography separation followed by mass spec detection (LCMS/MS), using a standard curve for each compound. Plasma pharmacokinetic parameters were calculated by non-compartmental methods.

[2] = Rat pharmacokinetics (cassette IV or screening IV/PO); type: in vivo; conditions: male; rat plasma, mean residence time
Protocol: Plasma pharmacokinetic parameters for clearance, volume of distribution, half-life and mean residence time (MRT) were determined in rats from IV cassette administration studies. 2 male rats typically weighing 225-260 gram, were fasted overnight prior to dosing. Compounds were prepared for IV dosing by addition to a vehicle, depending on the dose used. For a typical preparation, 1 mg per mL (IV) of up to 5 test compounds were added to vehicle comprised of 20% dimethyl sulfoxide (DMSO), 60% polyethylene glycol 400 (PEG400) and 20% water. IV formulation was administered to 2 rats via pre-cannulated jugular vein. Blood was collected by pre-cannulated artery, typically at predose, 2, 8, 15, 30 min. 1, 2, 4, 6, and 8 hr postdose. Samples were collected in K2EDTA tubes, stored on ice, and centrifuged. Plasma was transferred to a micro titer plate and stored at −70° C.until analysis. Plasma samples were extracted using protein precipitation and analyzed by liquid chromatography separation followed by mass spec detection (LCMS/MS), using a standard curve for each compound. Plasma pharmacokinetic parameters were calculated by non-compartmental methods.
Plasma pharmacokinetic parameters for clearance, volume of distribution, half-life, mean residence time (MRT) and oral bioavailability (%F)-were determined in rats from oral administration and IV administration studies. 4 male rats, typically weighing 225-260 gram, were fasted overnight prior to dosing. Compounds were prepared for oral and IV dosing by addition to a vehicle, depending on the dose used. For a typical preparation, 1 mg per mL (IV) or 1.5 mg per mL (oral) of test compound was added to vehicle comprised of 20% dimethyl sulfoxide (DMSO), 60% polyethylene glycol 400 (PEG400) and 20% water. IV formulation was administered to 2 rats via pre-cannulated jugular vein, and oral dosing was administered to 2 rats via oral gavage. Blood was collected by pre-cannulated artery, typically at predose, 2 min, 8 min, 15 min. 30 min, and 1, 2, 4, 6, and 8 hr postdose for IV, and at predose, 15 min, 30 min, and 1, 2, 4, 6, 8 hr for oral dosing. Samples were collected in K2EDTA tubes, stored on ice, and centrifuged. Plasma was transferred to a micro titer plate and stored at −70° C. until analysis. Plasma samples were extracted using protein precipitation and analyzed by liquid chromatography separation followed by mass spec detection (LCMS/MS), using a standard curve for each compound. Plasma pharmacokinetic parameters were calculated for IV and oral dosing data by non-compartmental methods. Oral bioavailability was determined as the ratio of the dose-normalized plasma area under the curve (AUC) following oral dosing vs. IV dosing.

SMILES	IC50 (Human plasma kallikrein) [nM]	MRT [1] [h]	MRT [2] [h]
CCOC(=O)c1[nH]c2nc1-c1ccc(NC(=O)OC)cc1NC(=O)C(C)(C)CCC[C@@H]2c1ccc(-c2cc(F)ccc2-n2cc(C(F)(F)F)cn2)c[n+]1[O-] [Example 1, (R,Z)-2-(1^5-(ethoxycarbonyl)-2^4-((methoxycarbonyl)amino)-5,5-dimethyl-4-oxo-1^1H-3-aza-1(4,2)-imidazola-2(1,2)-benzenacyclononaphane-9-yl)-5-(5-fluoro-2-(4-(trifluoromethyl)-1H-pyrazol-1-yl)phenyl)pyridine 1-oxide]	119	12	4
CCOC(=O)c1[nH]c2nc1-c1ccc(NC(=O)OC)cc1NC(=O)C(C)(C)CCC[C@@H]2c1ccc(-c2cc(Cl)ccc2-n2cc(C(F)(F)F)cn2)c[n+]1[O-] [Example 2, (R,Z)-5-(5-chloro-2-(4-(trifluoromethyl)-1H-pyrazol-1-yl)phenyl)-2-(1^5-(ethoxycarbonyl)-2^4-((methoxycarbonyl)amino)-5,5-dimethyl-4-oxo-1^1H-3-aza-1(4,2)-imidazola-2(1,2)-benzenacyclononaphane-9-yl)pyridine 1-oxide]	11	15	3.7
CCOC(=O)c1[nH]c2nc1-c1ccc(NC(=O)OC)cc1NC(=O)C(C)(C)CCC[C@@H]2c1ccc(-c2cc(F)ccc2OC(F)F)c[n+]1[O-] [Example 3, (R,Z)-5-(2-(difluoromethoxy)-5-fluorophenyl)-2-(1^5-(ethoxycarbonyl)-2^4-((methoxycarbonyl)amino)-5,5-dimethyl-4-oxo-1^1H-3-aza-1(4,2)-imidazola-2(1,2)-benzenacyclononaphane-9-yl)pyridine 1-oxide]	1.4	6.1	3.2
CCOC(=O)c1[nH]c2nc1-c1ccc(NC(=O)OC)cc1NC(=O)C(C)(C)CCC[C@@H]2c1ccc(-c2cc(Cl)cnc2OC(F)F)c[n+]1[O-] [Example 4, (R,Z)-5′-chloro-2′-(difluoromethoxy)-6-(1^5-(ethoxycarbonyl)-2^4-((methoxycarbonyl)amino)-5,5-dimethyl-4-oxo-1^1H-3-aza-1(4,2)-imidazola-2(1,2)-benzenacyclononaphane-9-yl)-[3,3′-bipyridine] 1-oxide]	104	9.9	3.8
CCOC(=O)c1[nH]c2nc1-c1ccc(NC(=O)OC)cc1NC(=O)C(C)(C)CCC[C@@H]2c1ccc(-c2cccc(Cl)c2F)c[n+]1[O-] [Example 5, (R,Z)-5-(3-chloro-2-fluorophenyl)-2-(1^5-(ethoxycarbonyl)-2^4-((methoxycarbonyl)amino)-5,5-dimethyl-4-oxo-1^1H-3-aza-1(4,2)-imidazola-2(1,2)-benzenacyclononaphane-9-yl)pyridine 1-oxide]	0.49	7.2	3.7
COC(=O)Nc1ccc2c(c1)NC(=O)C(C)(C)CCC[C@H](c1ccc(-c3cc(F)ccc3-n3cc(C(F)(F)F)cn3)c[n+]1[O-])c1nc-2c(C(=O)OC)[nH]1 [Example 6, (R,Z)-5-(5-fluoro-2-(4-(trifluoromethyl)-1H-pyrazol-1-yl)phenyl)-2-(1^5-(methoxycarbonyl)-2^4-((methoxycarbonyl)amino)-5,5-dimethyl-4-oxo-1^1H-3-aza-1(4,2)-imidazola-2(1,2)-benzenacyclononaphane-9-yl)pyridine 1-oxide]	122	8.9	3.1
